Among the test systems are BT-549 breast; M14 melanoma; MALME-3M melanoma; NCI-H226 lung; NCI-H23 lung; OVCAR-3 ovarian; RPMI-8226 leukemia; SF-268 CNS; SK-MEL-2 melanoma; U251 CNS.
Common to all, as to test: inhibition of tumour cell growth, NCI panel, 48 h

Molecules are shown by their SMILES.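 Test compounds were applied to cells in 96-well plates for 48 hours at 5 doses. TGI: total growth inhibition.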

For the compound `CC1S/C(=N/c2nnc(-c3ccccc3)o2)NC1=O` (stereo not given), the TGI in the assay on BT-549 breast is greater than 100 µM; with M14 melanoma, 56.5 µM; with MALME-3M melanoma, greater than 100 µM; in the assay with NCI-H226 lung it was greater than 100 µM; in the assay with NCI-H23 lung, greater than 100 µM; in the assay with OVCAR-3 ovarian, 69.5 µM. The TGI in the assay with RPMI-8226 leukemia, in the assay on SF-268 CNS, with SK-MEL-2 melanoma and in the assay on U251 CNS was greater than 100 µM in each case.
In the case of `Cn1c([O-])nc(-n2cc[n+](C)c2)cc1=O`, the TGI with BT-549 breast, in the assay with M14 melanoma, with MALME-3M melanoma, in the assay on NCI-H226 lung, in the assay on NCI-H23 lung and with OVCAR-3 ovarian was greater than 100 µM in each case. Also, the TGI with RPMI-8226 leukemia, with SF-268 CNS, in the assay on SK-MEL-2 melanoma and in the assay on U251 CNS was greater than 100 µM throughout.
On to `O=c1c2ccccc2nc(Nc2cccc(Cl)c2)n1/N=C/C=C/c1ccccc1`, for which the TGI with BT-549 breast, in the assay with M14 melanoma, in the assay with MALME-3M melanoma, in the assay on NCI-H226 lung, in the assay with NCI-H23 lung and with OVCAR-3 ovarian was greater than 100 µM each time. For the same compound, the TGI in the assay on RPMI-8226 leukemia, in the assay on SF-268 CNS, in the assay with SK-MEL-2 melanoma and in the assay with U251 CNS was greater than 100 µM each time.
Consider `COc1ccc2cc(NC(=O)N/N=C\c3ccc(Cl)cc3)ccc2c1`, for which the TGI with BT-549 breast, with M14 melanoma, in the assay with MALME-3M melanoma, with NCI-H226 lung, in the assay on NCI-H23 lung and with OVCAR-3 ovarian was greater than 100 µM in each case. Moreover, the TGI in the assay with RPMI-8226 leukemia, with SF-268 CNS, with SK-MEL-2 melanoma and in the assay on U251 CNS was greater than 100 µM each time.
For the compound `CCNC(=O)C1CCCN1C(=O)C(CCCN=C(N)N)NC(=O)C(CC(C)C)NC(=O)C(Cc1c[nH]c2ccccc12)NC(=O)C(Cc1ccc(O)cc1)NC(=O)C(CO)NC(=O)C(Cc1c[nH]c2ccccc12)NC(=O)C(Cc1cnc[nH]1)NC(=O)C1CCC(=O)N1` (stereo not given), the TGI in the assay on BT-549 breast, in the assay on M14 melanoma, in the assay with MALME-3M melanoma, in the assay on NCI-H226 lung, in the assay on NCI-H23 lung and with OVCAR-3 ovarian was greater than 100 µM in each case. The TGI in the assay with RPMI-8226 leukemia, in the assay with SF-268 CNS, with SK-MEL-2 melanoma and in the assay with U251 CNS was greater than 100 µM throughout.
In the case of `Clc1ccc(OCc2nnc(CCCCCCCCc3nnc(COc4ccc(Cl)cc4)n3Nc3ccccc3)n2Nc2ccccc2)cc1`, the TGI was 97.5 µM in the assay with BT-549 breast; greater than 38.3 µM in the assay with M14 melanoma; greater than 65.6 µM in the assay with MALME-3M melanoma; greater than 100 µM with NCI-H226 lung; greater than 100 µM with NCI-H23 lung; 39.9 µM in the assay with OVCAR-3 ovarian. Moreover, the TGI with RPMI-8226 leukemia is 5.13 µM; in the assay with SF-268 CNS, greater than 100 µM; in the assay on SK-MEL-2 melanoma, 63.5 µM; in the assay on U251 CNS, greater than 87.4 µM.
Regarding `C=c1c(OC)c(OC)c(O)c2c1=c1cc([N+](=O)[O-])cc(OC)c1=N2`, the TGI in the assay with BT-549 breast, in the assay on M14 melanoma, with MALME-3M melanoma, in the assay on NCI-H226 lung, with NCI-H23 lung and in the assay on OVCAR-3 ovarian was greater than 100 µM throughout. The TGI in the assay with RPMI-8226 leukemia, in the assay on SF-268 CNS, in the assay with SK-MEL-2 melanoma and in the assay with U251 CNS was greater than 100 µM in each case.
For `CCOC(=O)C(NC(=O)CC(C)C)(N1CCN(c2cc3c(cc2F)c(=O)c(C(=O)O)cn3C2CC2)CC1)C(F)(F)F` (stereo not given), the TGI in the assay on BT-549 breast is 39.1 µM; in the assay with M14 melanoma it was 47.5 µM; in the assay on MALME-3M melanoma, 31.7 µM; in the assay on NCI-H226 lung, 46.3 µM; with NCI-H23 lung, 33.5 µM; with OVCAR-3 ovarian it was 66.7 µM. Also, the TGI in the assay with RPMI-8226 leukemia is 78.6 µM; with SF-268 CNS, 40.8 µM; with SK-MEL-2 melanoma it was 53.3 µM; with U251 CNS, greater than 100 µM.
Regarding `CC1CC(=O)Nc2nc3ccccc3n21` (stereo not given), the TGI in the assay with BT-549 breast, in the assay with M14 melanoma, in the assay with MALME-3M melanoma, in the assay on NCI-H226 lung, in the assay on NCI-H23 lung and in the assay with OVCAR-3 ovarian was greater than 100 µM each time. Also, the TGI in the assay on RPMI-8226 leukemia, in the assay on SF-268 CNS, with SK-MEL-2 melanoma and in the assay with U251 CNS was greater than 100 µM in each case.
Consider `COC(=O)Cc1c([C@H]2[C@H](CC(=O)OC)c3ccccc3N2C(C)=O)[nH]c2ccccc12`, for which the TGI with BT-549 breast, in the assay on M14 melanoma, with MALME-3M melanoma, with NCI-H226 lung, in the assay on NCI-H23 lung and in the assay with OVCAR-3 ovarian was greater than 100 µM throughout. For the same compound, the TGI with RPMI-8226 leukemia, in the assay with SF-268 CNS, with SK-MEL-2 melanoma and with U251 CNS was greater than 100 µM in each case.
As for `NC(N)=NS(=O)(=O)c1ccc(NC(=O)c2ccc3nc4ccccc4c(Nc4ccc(S(=O)(=O)N=C(N)N)cc4)c3c2)cc1`, the TGI with BT-549 breast, with M14 melanoma, in the assay with MALME-3M melanoma, with NCI-H226 lung, in the assay on NCI-H23 lung and with OVCAR-3 ovarian was greater than 100 µM each time. Besides, the TGI with RPMI-8226 leukemia, with SF-268 CNS, with SK-MEL-2 melanoma and in the assay on U251 CNS was greater than 100 µM in each case.
`CCN1CCC(O)(C(C(=O)O)c2ccccc2)CC1` (stereo not given): the TGI in the assay with BT-549 breast, in the assay on M14 melanoma, in the assay with MALME-3M melanoma, with NCI-H226 lung, in the assay on NCI-H23 lung and in the assay on OVCAR-3 ovarian was greater than 100 µM each time. The TGI with RPMI-8226 leukemia, in the assay on SF-268 CNS, in the assay on SK-MEL-2 melanoma and in the assay on U251 CNS was greater than 100 µM throughout.
As for `CC1(CNCc2ccccc2)CC(CCc2ccccc2)N(C(=O)c2ccc([N+](=O)[O-])cc2)C1Cc1ccc(O)cc1` (stereo not given), the TGI stood at 31.3 µM in the assay with BT-549 breast; 28 µM in the assay with M14 melanoma; 33.6 µM in the assay with MALME-3M melanoma; 24.1 µM in the assay on NCI-H226 lung; 23.5 µM in the assay with NCI-H23 lung; 24.6 µM in the assay with OVCAR-3 ovarian. Also, the TGI was greater than 100 µM in the assay on RPMI-8226 leukemia, 27.6 µM with SF-268 CNS, 32.7 µM in the assay with SK-MEL-2 melanoma and 26.2 µM with U251 CNS.
As to `C=C1C(=O)O[C@@]23C1CC[C@@H](C)C2CC[C@@]1(C)OC31` (stereo not given in full), the TGI in the assay with BT-549 breast was found to be 23.7 µM; in the assay with M14 melanoma, 12.9 µM; in the assay with MALME-3M melanoma it was 7.59 µM; in the assay with NCI-H226 lung, 47.9 µM; in the assay on NCI-H23 lung, 20.6 µM; in the assay on OVCAR-3 ovarian, 13.4 µM. Besides, the TGI was found to be 16.8 µM with RPMI-8226 leukemia, 34.3 µM in the assay on SF-268 CNS, 23.9 µM in the assay on SK-MEL-2 melanoma and 19.3 µM in the assay with U251 CNS.
In the case of `O=C(Nc1ccccc1C(=O)NCCCO)/C(=C/c1ccccc1O)NC(=O)c1ccccc1`, the TGI in the assay on BT-549 breast is 55.7 µM; with M14 melanoma, greater than 100 µM; in the assay with MALME-3M melanoma it was greater than 100 µM; in the assay with NCI-H226 lung, greater than 100 µM; with NCI-H23 lung, greater than 94.5 µM; in the assay with OVCAR-3 ovarian it was greater than 100 µM. Besides, the TGI is greater than 100 µM in the assay with RPMI-8226 leukemia, greater than 100 µM with SF-268 CNS, greater than 100 µM in the assay on SK-MEL-2 melanoma and greater than 81.6 µM in the assay with U251 CNS.
On to `CN(C)S(=O)(=O)Nc1nnc(S(N)(=O)=O)s1`, for which the TGI in the assay on BT-549 breast, in the assay on M14 melanoma, with MALME-3M melanoma, in the assay on NCI-H226 lung, with NCI-H23 lung and in the assay with OVCAR-3 ovarian was greater than 100 µM throughout. Moreover, the TGI in the assay with RPMI-8226 leukemia, in the assay with SF-268 CNS, with SK-MEL-2 melanoma and in the assay with U251 CNS was greater than 100 µM in each case.

These data come from PubChem BioAssay (NCI).
